According to the supplement of paper PMC8967900:

Assays:
Experiment in all cases: selective drug sensitivity score (sDSS, relative to normal bone marrow) (sDSS (score)); higher = more potent and effective on the cell line relative to normal bone marrow cells
Settings in all cases: 72 h
TMD5 = tested on: TMD5
MHH-CALL-4 = tested on: MHH-CALL-4
P12-ICHIKAWA = tested on: P12-ICHIKAWA
MOLT-16 = tested on: MOLT-16
KASUMI-10 = tested on: KASUMI-10
DND-41 = tested on: DND-41
CCRF-HSB2 = tested on: CCRF-HSB2
HPB-ALL = tested on: HPB-ALL
KASUMI-9 = tested on: KASUMI-9
JURKAT = tested on: JURKAT
MOLT-4 = tested on: MOLT-4
HAL-01 = tested on: HAL-01
LC4-1 = tested on: LC4-1
TANOUE = tested on: TANOUE
380 = tested on: 380
NALL-1 = tested on: NALL-1
NALM-6 = tested on: NALM-6
MHH-CALL-2 = tested on: MHH-CALL-2
MN-60 = tested on: MN-60
697 = tested on: 697
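Note: ALL cell lines in 384-well plates, five doses spanning 10,000-fold, each plate scaled between vehicle and 100 µmol/L benzalkonium chloride controls, sDSS an adapted area-under-curve metric.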

SMILES	selective drug sensitivity score (TMD5)	selective drug sensitivity score (MHH-CALL-4)	selective drug sensitivity score (P12-ICHIKAWA)	selective drug sensitivity score (MOLT-16)	selective drug sensitivity score (KASUMI-10)	selective drug sensitivity score (DND-41)	selective drug sensitivity score (CCRF-HSB2)	selective drug sensitivity score (HPB-ALL)	selective drug sensitivity score (KASUMI-9)	selective drug sensitivity score (JURKAT)	selective drug sensitivity score (MOLT-4)	selective drug sensitivity score (HAL-01)	selective drug sensitivity score (LC4-1)	selective drug sensitivity score (TANOUE)	selective drug sensitivity score 380	selective drug sensitivity score (NALL-1)	selective drug sensitivity score (NALM-6)	selective drug sensitivity score (MHH-CALL-2)	selective drug sensitivity score (MN-60)	selective drug sensitivity score 697
O=c1[nH]c(=O)n([C@H]2C[C@H](O)[C@@H](CO)O2)cc1C(F)(F)F [Trifluridine] (top concentration 10000 nM)	-1.84	2.26	15.4	15.1	6.36	9.76	-1.84	4.66	6.56	9.66	7.36	8.76	16	-1.84	14	9.76	15	9.96	3.66	17.9
CN(Cc1cnc2nc(N)nc(N)c2n1)c1ccc(C(=O)N[C@@H](CCC(=O)O)C(=O)O)cc1 [Methotrexate] (top concentration 5000 nM)	-0.42	9.68	15.8	15.7	9.88	15	14	5.28	-0.42	13.4	11.2	17.1	-0.02	15.3	17.8	12.7	16.4	13.8	14.6	0.58
CN1CCN(C2CCC(n3cc(-c4ccc(Oc5ccccc5)cc4)c4c(N)ncnc43)CC2)CC1 (stereo not given) (top concentration 10000 nM)	10.2	0.52	1.12	0.52	8.52	3.62	29.1	0.32	6.52	0.62	0.82	7.52	-1.78	-4.68	-0.68	5.52	3.42	3.12	1.32	3.32
CON(C)C(=O)N1N=C(c2cc(F)ccc2F)S[C@@]1(CCCN)c1ccccc1 [Filanesib] (top concentration 1000 nM)	10.5	7.4	15.9	21.2	14.2	6.3	22.5	20.3	12.4	17.7	9.3	11.5	13.2	-6.5	18.5	10.3	21	16.4	7.1	23
CC[C@H](CC#N)OC(=O)N[C@@H](C)c1cccc(NC(=O)Nc2ccc(-c3cnco3)c(OC)c2)c1 [AVN944] (top concentration 10000 nM)	2.74	2.44	14.2	22.3	10.1	8.44	14.5	5.64	13.5	13.7	15.6	5.54	5.34	-3.66	18.4	2.64	15.5	9.54	3.64	17.5
COc1cccc2c1C(=O)c1c(O)c3c(c(O)c1C2=O)C[C@@](O)(C(=O)CO)C[C@@H]3O[C@H]1C[C@H](N)[C@@H](O)[C@H](C)O1 [Epirubicin] (top concentration 1000 nM)	1.02	6.92	4.62	15.4	5.82	-0.58	14.8	0.12	7.62	1.02	9.92	-4.28	7.62	-7.88	13.8	-5.28	3.82	6.12	-0.98	10.1
Cc1sc2c(c1C)C(c1ccc(Cl)cc1)=N[C@@H](CC(=O)NCCCCNC(=O)COc1cccc3c1C(=O)N(C1CCC(=O)NC1=O)C3=O)c1nnc(C)n1-2 (stereo not given in full) [dBET1] (top concentration 10000 nM)	-13.8	5.42	-11.6	1.42	2.32	-0.88	2.12	-12.7	2.42	-11.9	-9.28	-14.9	5.22	-17.5	-4.58	-11.8	-4.78	4.92	-8.08	-0.38
CO[C@H]1C[C@@H]2CC[C@@H](C)[C@@](O)(O2)C(=O)C(=O)N2CCCC[C@H]2C(=O)O[C@H]([C@H](C)C[C@@H]2CC[C@@H](OCCO)[C@H](OC)C2)CC(=O)[C@H](C)/C=C(\C)[C@@H](O)[C@@H](OC)C(=O)[C@H](C)C[C@H](C)/C=C/C=C/C=C/1C [Everolimus] (top concentration 100 nM)	-3.8	-1.5	-2.5	8.1	-5.3	1.1	4.8	-5.3	10.3	-1	-1.2	2.7	3.3	-5.3	16.5	-5.3	-3.8	4.2	0.5	9.3
CC[C@@]1(O)C(=O)OCc2c1cc1n(c2=O)Cc2cc3c(CN(C)C)c(O)ccc3nc2-1 [Topotecan] (top concentration 10000 nM)	14.3	16.5	19.2	21.5	18	21.4	23.3	11.2	18.2	15.2	19.9	20	21.7	-3.62	27.1	20.4	17.1	26.6	4.28	18.9
COc1ccc(-c2ccc3c(N4CCOC[C@@H]4C)nc(N4CCOC[C@@H]4C)nc3n2)cc1CO [AZD8055] (top concentration 10000 nM)	-1.62	2.88	6.78	12.5	0.48	4.78	10.1	0.18	13.3	4.88	7.08	5.08	6.38	-3.02	15.8	-3.22	3.68	6.08	7.98	16.8
